Measured values from ChEMBL document CHEMBL1134249, “The identification and characterization of hydrazinyl urea-based antibacterial agents through combinatorial chemistry” (Bioorg Med Chem Lett, 2001).
In brackets after ≈: the same amount, converted by molar mass.

Key:
Bacteria = test: Minimum inhibitory concentration required against six gram-positive organisms (G+6); format: functional
Staphylococcus aureus = test: Inhibitory concentration required against cell wall synthesis in Staphylococcus aureus (MI246); format: functional, organism-based
[1] = Solubility at pH 7.4; format: physicochemical; conditions: buffer

SMILES | MIC (Bacteria) [µM] | IC50 (Staphylococcus aureus) [µM] | solubility [1] [µg/mL]
CC(C)c1nc2ccccc2c(=O)n1NC(=O)Nc1ccc(C(F)(F)F)cc1 | 10 (≈ 3.9 µg/mL) | 44 | 6 (≈ 15.4 µM)
CCc1nc2ccccc2c(=O)n1NC(=O)Nc1cc(C(F)(F)F)cc(C(F)(F)F)c1 | 7 (≈ 3.11 µg/mL) | 36 | 59 (≈ 133 µM)
O=C(Nc1cc(C(F)(F)F)cc(C(F)(F)F)c1)NN1CCOCC1 | 68 (≈ 24.3 µg/mL) | 135 | 5 (≈ 14 µM)
O=C(Nc1cc(C(F)(F)F)cc(C(F)(F)F)c1)Nn1cnnc1 | 198 (≈ 67.2 µg/mL) | 236 | 53 (≈ 156 µM)
CN[C@H](CC(C)C)C(=O)N[C@H]1C(=O)N[C@@H](CC(N)=O)C(=O)N[C@H]2C(=O)N[C@H]3C(=O)N[C@H](C(=O)N[C@H](C(=O)O)c4cc(O)cc(O)c4-c4cc3ccc4O)[C@H](O)c3ccc(c(Cl)c3)Oc3cc2cc(c3O[C@@H]2O[C@H](CO)[C@@H](O)[C@H](O)[C@H]2O[C@H]2C[C@](C)(N)[C@H](O)[C@H](C)O2)Oc2ccc(cc2Cl)[C@H]1O [VANCOMYCIN] | 0.3 (≈ 0.435 µg/mL) | 0.4 | –
O=C(Nc1cc(C(F)(F)F)cc(C(F)(F)F)c1)NN1CCN(CCO)CC1 | > 300 | 167 | –

More lines, in order of falling MIC (Bacteria), values ahead:

MIC (Bacteria) [µM] | IC50 (Staphylococcus aureus) [µM] | solubility [1] [µg/mL] | SMILES
4 (≈ 1.73 µg/mL) | 47 | 2 (≈ 4.62 µM) | O=C(NNc1nccc(C(F)(F)F)n1)Nc1cc(C(F)(F)F)cc(C(F)(F)F)c1
3 (≈ 1.63 µg/mL) | 17 | < 0.5 | O=C(NNC(=O)Nc1cc(C(F)(F)F)cc(C(F)(F)F)c1)Nc1cc(C(F)(F)F)cc(C(F)(F)F)c1
2 (≈ 0.949 µg/mL) | 145 | – | O=C(NNC(=O)Nc1cc(C(F)(F)F)cc(C(F)(F)F)c1)Nc1ccc(C(F)(F)F)cc1
1.5 (≈ 0.688 µg/mL) | 66 | 3 (≈ 6.55 µM) | CC(C)c1nc2ccccc2c(=O)n1NC(=O)Nc1cc(C(F)(F)F)cc(C(F)(F)F)c1
